This is an account of results in ChEMBL document CHEMBL1201862, “PubChem BioAssay data set” (2004).

Some test systems named below: MOLT-4; HT-29; HCC 2998; HCT-15; DU-145; UACC-62; SF-295; RPMI-8226; OVCAR-4; CCRF-CEM; PC-3; SK-OV-3; MCF7; COLO 205; KM12; T47D; Malme-3M; SF-539; SN12C.
Holding throughout (experiment): growth of human tumour cells (NCI), 48 h

SMILES strings stand for the structures.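 These data come from cells grown in 96-well plates and exposed to compound for 48 hours at five concentrations. Abbreviation: GI50, concentration required for 50% inhibition of growth.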 The source made the active and inactive calls. No stated cut-off is given here; in the data, active = GI50 up to about 1.1 µM and inactive = higher.

For the compound `Clc1ccc(C2=C(c3ccccc3)C(c3ccc(Cl)cc3)N3C(=N[C@H]4CCCC[C@@H]43)N2)cc1` (some centres undefined), the GI50 in the assay on MOLT-4 was 4.46 µM (inactive); in the assay with HT-29, 3.27 µM (inactive); with HCC 2998 it was 3.08 µM (inactive); in the assay on HCT-15, 5.96 µM; in the assay on DU-145, 13.2 µM (inactive); in the assay on UACC-62 it was 16.7 µM (inactive). Also, the GI50 in the assay with SF-295 was 11.6 µM (inactive); in the assay with RPMI-8226 it was 2.48 µM (inactive); with OVCAR-4, 9.2 µM (inactive); in the assay with CCRF-CEM, 3.58 µM (inactive); in the assay with PC-3, 10.2 µM (inactive); with SK-OV-3, 17.1 µM (inactive). In addition, the GI50 is 7.06 µM (inactive) in the assay with MCF7; 6.64 µM (inactive) in the assay with COLO 205; 9.4 µM (inactive) with KM12; 15.6 µM (inactive) in the assay on T47D; 16.5 µM (inactive) in the assay with Malme-3M; 15.3 µM (inactive) in the assay on SF-539.

As for `CCOC(=O)/C=C(/C(=O)OCC)n1ccc(=O)n(CC(=O)OCC)c1=O`, the GI50 with MOLT-4 is 0.243 µM (active); in the assay on HT-29 it was 1.58 µM (inactive); with HCC 2998, 2.36 µM (inactive); in the assay with HCT-15, 0.463 µM; with DU-145, 5.01 µM (inactive); in the assay with UACC-62, 1.64 µM (inactive). The GI50 was 14 µM (inactive) with SF-295; 1.84 µM (inactive) in the assay with OVCAR-4; 0.169 µM (active) with CCRF-CEM; 1.67 µM (inactive) with PC-3; 14.4 µM (inactive) with SK-OV-3; 0.471 µM (active) in the assay on MCF7. Further, the GI50 with COLO 205 was 0.284 µM (active); with SN12C, 1.1 µM (active); in the assay with KM12 it was 2.57 µM (inactive); with T47D, 0.57 µM (active); in the assay with Malme-3M, 0.668 µM (active); with SF-539, 2.96 µM (inactive).

As for `Nc1ccc(C(=O)Nn2c(-c3ccccc3)nc3ccccc3c2=O)cc1`, the GI50 in the assay with MOLT-4, in the assay with HT-29, in the assay with HCC 2998, in the assay on DU-145, in the assay with UACC-62 and with SF-295 was > 100 µM (inactive) throughout. For the same compound, the GI50 with RPMI-8226, in the assay on OVCAR-4, in the assay with CCRF-CEM, in the assay on PC-3, in the assay on SK-OV-3 and with MCF7 was > 100 µM (inactive) in each case. For the same compound, the GI50 in the assay with COLO 205, with SN12C, in the assay on KM12, in the assay with T47D, in the assay on Malme-3M and in the assay on SF-539 was > 100 µM (inactive) each time.

In the case of `Cc1n[nH]c(C(F)(F)F)c1/N=N/N(C)C`, the GI50 was 2.48 µM (inactive) in the assay with MOLT-4; 4.98 µM (inactive) in the assay on HT-29; 14 µM (inactive) in the assay on HCC 2998; 7.26 µM in the assay on HCT-15; 7.69 µM (inactive) in the assay with DU-145; 6.81 µM (inactive) with UACC-62. The GI50 was 12.1 µM (inactive) in the assay with SF-295; 2.14 µM (inactive) in the assay with RPMI-8226; 2.63 µM (inactive) in the assay with CCRF-CEM; 11.1 µM (inactive) in the assay on PC-3; 12.5 µM (inactive) in the assay on SK-OV-3; 3.5 µM (inactive) with MCF7. Also, the GI50 with COLO 205 was 2.98 µM (inactive); in the assay with SN12C, 12.5 µM (inactive); in the assay on KM12, 7.57 µM (inactive); in the assay with T47D, 2.23 µM (inactive); in the assay on Malme-3M, 16.6 µM (inactive); in the assay with SF-539, 5.28 µM (inactive).

With `Cc1ccc(C(=O)Cn2c(C(=O)/C=C/c3cccs3)nc3ccccc32)cc1`, the GI50 is 38.5 µM (inactive) with HT-29; 21 µM (inactive) in the assay with HCC 2998; 31.3 µM in the assay with HCT-15; 82 µM (inactive) in the assay on DU-145; 87.1 µM (inactive) in the assay with UACC-62; 21.7 µM (inactive) in the assay on RPMI-8226. For the same compound, the GI50 with OVCAR-4 is 29.5 µM (inactive); in the assay with CCRF-CEM, 11.5 µM (inactive); in the assay on PC-3 it was 28.6 µM (inactive); in the assay with SK-OV-3, > 100 µM (inactive); with MCF7 it was 29.6 µM (inactive); with COLO 205, 41.1 µM (inactive). Moreover, the GI50 with SN12C was 32.9 µM (inactive); in the assay with KM12, 24.2 µM (inactive); in the assay on T47D, > 100 µM (inactive); in the assay on Malme-3M, 24.5 µM (inactive); with SF-539 it was > 100 µM (inactive).

Turning to `CCc1nc(N)nc(N)c1-c1ccc(Cl)c(Cl)c1` [ETOPRINE], the GI50 in the assay with HT-29 was 0.879 µM (active); with HCC 2998, 12.4 µM (inactive); in the assay on HCT-15, 3.75 µM; in the assay with DU-145 it was 11 µM (inactive); with UACC-62, 0.711 µM (active); in the assay with SF-295, 0.738 µM (active). In addition, the GI50 with RPMI-8226 is 9.71 µM (inactive); with OVCAR-4, > 100 µM (inactive); in the assay with CCRF-CEM, > 100 µM (inactive); with PC-3, 34.5 µM (inactive); in the assay on SK-OV-3 it was > 100 µM (inactive); in the assay with MCF7, 3.05 µM (inactive). The GI50 in the assay with COLO 205 was 8.43 µM (inactive); in the assay on SN12C, 6.79 µM (inactive); with KM12 it was 8.51 µM (inactive); in the assay with T47D it was > 100 µM (inactive); with Malme-3M it was 5.79 µM (inactive); in the assay with SF-539, 5.16 µM (inactive).

`O=c1[nH]cc(/C=N\Nc2ccccc2)c(=O)[nH]1`: the GI50 in the assay with HT-29 was 49.2 µM (inactive); in the assay on HCC 2998 it was > 100 µM (inactive); with HCT-15 it was 36.3 µM; with DU-145, > 100 µM (inactive); in the assay with UACC-62, 66.7 µM (inactive); with SF-295 it was 25.7 µM (inactive). For the same compound, the GI50 with RPMI-8226, in the assay on OVCAR-4, in the assay on CCRF-CEM, with PC-3, with SK-OV-3 and with MCF7 was > 100 µM (inactive) each time. Besides, the GI50 in the assay on COLO 205 was 66.2 µM (inactive); in the assay on SN12C it was > 100 µM (inactive); in the assay with KM12, > 100 µM (inactive); in the assay on T47D, 9.23 µM (inactive); in the assay on Malme-3M, > 100 µM (inactive); in the assay with SF-539, > 100 µM (inactive).

`COC(=O)c1c(O)ccc2c1c1c(n2Cc2ccccn2)C(=O)c2ccccc2C1=O`: the GI50 in the assay with MOLT-4 was 94.8 µM (inactive); in the assay on HT-29, 4.22 µM (inactive); in the assay with HCC 2998, 13.2 µM (inactive); in the assay with HCT-15, 46 µM; in the assay with DU-145 it was 42.4 µM (inactive); with UACC-62, > 100 µM (inactive). In addition, the GI50 with SF-295 was 20.2 µM (inactive); in the assay with RPMI-8226, 25.3 µM (inactive); in the assay with CCRF-CEM, 80 µM (inactive); with PC-3 it was 58.7 µM (inactive); with SK-OV-3 it was 21.7 µM (inactive); with MCF7, 54.1 µM (inactive). Further, the GI50 in the assay on COLO 205 is 14.5 µM (inactive); in the assay with SN12C, > 100 µM (inactive); in the assay with KM12, 46.2 µM (inactive); in the assay on T47D it was 32 µM (inactive); in the assay with Malme-3M, 31.2 µM (inactive); in the assay with SF-539, 17.1 µM (inactive).

Regarding `CC(C)(Br)C(Br)CCC1(C2CO2)CO1` (centres undefined), the GI50 is > 5 µM (inactive) in the assay on MOLT-4; > 5 µM (inactive) in the assay with HT-29; > 5 µM (inactive) in the assay on HCC 2998; above 5 µM in the assay with HCT-15; > 5 µM (inactive) in the assay with DU-145; > 5 µM (inactive) with SF-295. Besides, the GI50 in the assay on RPMI-8226, with OVCAR-4, in the assay on CCRF-CEM, in the assay with PC-3, in the assay with SK-OV-3 and in the assay with MCF7 was > 5 µM (inactive) throughout. The GI50 in the assay on COLO 205, in the assay with SN12C, in the assay on T47D, in the assay on Malme-3M and with SF-539 was > 5 µM (inactive) in each case.

For the compound `CC1C(c2ccc(Cl)cc2)c2cc3c(cc2OC1N1CCOCC1)OCO3` (centres undefined), the GI50 in the assay on MOLT-4 is > 100 µM (inactive); in the assay with HT-29, 49.5 µM (inactive); in the assay with HCC 2998, > 100 µM (inactive); in the assay with HCT-15, above 100 µM; in the assay on DU-145 it was > 100 µM (inactive); with UACC-62 it was 74 µM (inactive). In addition, the GI50 in the assay on SF-295 is 31.8 µM (inactive); in the assay on RPMI-8226, 34.1 µM (inactive); with CCRF-CEM, 92.9 µM (inactive); in the assay with PC-3 it was 67.3 µM (inactive); in the assay with MCF7, > 100 µM (inactive); in the assay on COLO 205, > 100 µM (inactive). The GI50 with SN12C is > 100 µM (inactive); in the assay with KM12 it was > 100 µM (inactive); in the assay on T47D, 32.4 µM (inactive); in the assay with SF-539 it was 45 µM (inactive).

With `N=C(c1ccc2ccccc2c1)c1ccccc1Cc1ccccc1`, the GI50 in the assay on MOLT-4 is 21.7 µM (inactive); in the assay on HT-29 it was 16.4 µM (inactive); in the assay with HCC 2998, 31.8 µM (inactive); in the assay on HCT-15 it was 28.8 µM; in the assay with DU-145, 29.8 µM (inactive); in the assay with UACC-62 it was 43.3 µM (inactive). In addition, the GI50 was 32.2 µM (inactive) in the assay with SF-295; 38 µM (inactive) in the assay with RPMI-8226; 34.7 µM (inactive) in the assay on OVCAR-4; 19.5 µM (inactive) with CCRF-CEM; 51.6 µM (inactive) in the assay with PC-3; 43 µM (inactive) in the assay with SK-OV-3. Further, the GI50 in the assay on MCF7 was 33.5 µM (inactive); in the assay with COLO 205, > 100 µM (inactive); with SN12C it was 34.8 µM (inactive); in the assay with KM12 it was 25.2 µM (inactive); in the assay with T47D, 17.3 µM (inactive); in the assay with SF-539, 41.5 µM (inactive).
